Results: PubChem BioAssay (NCI)
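Following 48 hours of exposure in 96-well plates, responses at five concentrations were used to interpolate endpoints linearly. The concentration for 50% growth inhibition is given as GI50. The concentration for full growth arrest is given as TGI.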

Legend:
Experiment in all cases: DTP human tumour cell line panel, 48 h
IGROV1 ovarian = tested on: IGROV1 ovarian
SNB-75 CNS = tested on: SNB-75 CNS
NCI-H226 lung = tested on: NCI-H226 lung
RXF 393 renal = tested on: RXF 393 renal
T-47D breast = tested on: T-47D breast
U251 CNS = tested on: U251 CNS
HOP-62 NSCLC = tested on: HOP-62 NSCLC
HT29 colon = tested on: HT29 colon
SW-620 colon = tested on: SW-620 colon
K-562 leukemia = tested on: K-562 leukemia

| SMILES | GI50 (IGROV1 ovarian) [µM] | TGI (IGROV1 ovarian) [µM] | GI50 (SNB-75 CNS) [µM] | TGI (SNB-75 CNS) [µM] | GI50 (NCI-H226 lung) [µM] | TGI (NCI-H226 lung) [µM] | GI50 (RXF 393 renal) [µM] | TGI (RXF 393 renal) [µM] | GI50 (T-47D breast) [µM] | TGI (T-47D breast) [µM] | GI50 (U251 CNS) [µM] | TGI (U251 CNS) [µM] | GI50 (HOP-62 NSCLC) [µM] | TGI (HOP-62 NSCLC) [µM] | GI50 (HT29 colon) [µM] | TGI (HT29 colon) [µM] | GI50 (SW-620 colon) [µM] | TGI (SW-620 colon) [µM] | GI50 (K-562 leukemia) [µM] | TGI (K-562 leukemia) [µM] |
| --- | --- | --- | --- | --- | --- | --- | --- | --- | --- | --- | --- | --- | --- | --- | --- | --- | --- | --- | --- | --- |
| C(=N/N(Cc1ccccc1)Cc1ccccc1)/c1ccccc1 | > 100 | > 100 | > 100 | > 100 | > 100 | > 100 | 66.3 | > 100 | 72.4 | > 100 | > 100 | > 100 | > 100 | > 100 | 24.7 | > 100 | > 100 | > 100 |  |  |
| COc1ccc(N(CC(=O)NCCC[Te]c2ccccc2)C(=O)CNC(=O)OC(C)(C)C)cc1 | 2.24 | 5.42 | 2.07 | 7.43 | 2.29 | 5.36 |  |  | 11 | 40.9 | 2.37 | 6.51 | 2.19 | 4.73 | 3.82 | 13.9 | 3.44 | 14.4 | 5.5 | > 100 |
| O=C(CC1SC(=Nc2ccccc2Cl)NC1=O)Nc1ccc(Cl)cc1Cl (stereo unspecified) |  | > 100 |  | > 100 |  | > 100 |  | > 100 |  |  |  | > 100 |  | > 100 |  | > 100 |  | > 100 |  |  |
| N#CC(c1ccccn1)c1nc2ccccc2[nH]1 (stereo unspecified) |  |  |  | > 100 |  | > 100 |  |  |  |  |  | > 100 |  | > 100 |  | > 100 |  | > 100 |  | > 100 |
| C[CH2][Sn]([CH2]C)([O]C(=O)c1ccccc1OC)[O][Sn]([CH2]C)([CH2]C)[O]C(=O)c1ccccc1OC | > 100 | > 100 | > 100 | > 100 | > 100 | > 100 | 43.3 | > 100 |  |  | > 100 | > 100 | > 100 | > 100 | > 100 | > 100 | 44.8 | > 100 | 47 | > 100 |
| Cc1ccc(NC(=O)CC2C(=O)Nc3ccccc3S2(=O)=O)c(C)c1 (stereo unspecified) |  | 28.8 |  | 38.6 |  | 35.9 |  | 41 |  |  |  | 25.8 |  |  |  | 27.2 |  | 19.5 |  | 29 |
| C=CNC(=O)NC(=O)CSc1nnc(-c2ccccc2NC(=O)C(F)(F)F)c(=O)[nH]1 |  | > 100 |  | 0.968 |  | > 100 |  | > 100 |  |  |  | > 100 |  | > 100 |  | > 100 |  | > 100 |  | > 100 |
| NC(=O)c1csc(C2OC(COP(=O)(O)CP(=O)(O)OCC3OC(n4cnc5c(N)ncnc54)C(O)C3O)C(O)C2O)n1 (stereo unspecified) |  | > 100 |  | > 100 |  | > 100 |  |  |  |  |  | > 100 |  | > 100 |  | > 100 |  | > 100 |  | > 100 |
| COc1cc2c(cc1OC)-c1ncc3c(OC)c(OC)c(OC)cc3c1C2 |  |  | 28.9 | > 100 |  |  |  |  | 40.8 | > 100 | 15.8 | 33 | 16 | 29.4 |  |  | 34.2 | > 100 | 10.7 | > 100 |
